Laboratory results published in article PMC7162861, “Synthesis, cytotoxicity, pharmacokinetic profile, binding with DNA and BSA of new imidazo[1,2-a]pyrazine-benzo[d]imidazol-5-yl hybrids” (Scientific Reports, 2020).

Legend:
[1] = system: MOLT-4; assay: NCI cytotoxicity screen, Leukemia panel; assay type: cell-based; conditions: MOLT-4, five dose 0.01–100 µM
Experimental: (§1) Cytotoxicity was performed at National Cancer Institute (NCI), Bethesda, USA as per their protocols.

[2] = system: SW-620; assay: NCI cytotoxicity screen, Colon Cancer panel; assay type: cell-based, human; conditions: five dose 0.01–100 µM
Experimental: as §1

[3] = system: KM12; assay: NCI cytotoxicity screen, Colon Cancer panel; assay type: cell-based, human; conditions: five dose 0.01–100 µM
Experimental: as §1

[4] = system: HCC-2998; assay: NCI cytotoxicity screen, Colon Cancer panel; assay type: cell-based, human
Experimental: as §1

[5] = system: LOX IMVI; assay: NCI cytotoxicity screen, Melanoma panel; assay type: cell-based, human
Experimental: as §1

[6] = system: M14; assay: NCI cytotoxicity screen, Melanoma panel; assay type: cell-based, human
Experimental: as §1

[7] = system: UACC-62; assay: NCI cytotoxicity screen, Melanoma panel; assay type: cell-based, human; conditions: five dose 0.01–100 µM
Experimental: as §1

[8] = system: IGROV1; assay: NCI cytotoxicity screen, Ovarian Cancer panel; assay type: cell-based; conditions: Homo sapiens, IGROV-1, five dose 0.01–100 µM
Experimental: as §1

[9] = system: SK-OV-3; assay: NCI cytotoxicity screen, Ovarian Cancer panel; assay type: cell-based
Experimental: as §1

[10] = system: OVCAR-8; assay: NCI cytotoxicity screen, Ovarian Cancer panel; assay type: cell-based
Experimental: as §1

[11] = system: OVCAR-4; assay: NCI cytotoxicity screen, Ovarian Cancer panel; assay type: cell-based
Experimental: as §1

[12] = system: OVCAR-5; assay: NCI cytotoxicity screen, Ovarian Cancer panel; assay type: cell-based; conditions: Homo sapiens
Experimental: as §1

[13] = system: NCI/ADR-RES; assay: NCI cytotoxicity screen, Ovarian Cancer panel; assay type: cell-based
Experimental: as §1

[14] = system: NCI-H322M; assay: NCI cytotoxicity screen, Non-Small Cell Lung Cancer panel; assay type: cell-based, human
Experimental: as §1

[15] = system: NCI-522; assay: as above; assay type: cell-based, human
Experimental: as §1

[16] = system: NCI-H226; assay: as above; assay type: cell-based, human
Experimental: as §1

[17] = system: NCI-H23; assay: as above; assay type: cell-based, human; conditions: five dose 0.01–100 µM
Experimental: as §1

[18] = system: MDA-MB-231/ATCC; assay: NCI cytotoxicity screen, Breast Cancer panel; assay type: cell-based
Experimental: as §1

[19] = system: HS 578 T; assay: NCI cytotoxicity screen, Breast Cancer panel; assay type: cell-based
Experimental: as §1

[20] = system: BT-549; assay: NCI cytotoxicity screen, Breast Cancer panel; assay type: cell-based
Experimental: as §1

[21] = system: T-47D; assay: NCI cytotoxicity screen, Breast Cancer panel; assay type: cell-based
Experimental: as §1

[22] = system: MDA-MB-468; assay: NCI cytotoxicity screen, Breast Cancer panel; assay type: cell-based; conditions: Homo sapiens, five dose 0.01–100 µM
Experimental: as §1

[23] = system: MCF7; assay: NCI cytotoxicity screen, Breast Cancer panel; assay type: cell-based
Experimental: as §1

[24] = Homo sapiens, five dose 0.01–100 µM, read-out: LC50 (the source's name)

With `c1cn2cc(-c3ccc4ncn(C5CCCCC5)c4c3)nc(-c3ccc4c(c3)ncn4C3CCCCC3)c2n1` [Compound 31, 8-(1-cyclohexyl-1H-benzo[d]imidazol-5-yl)-6-(1-cyclohexyl-1H-benzo[d]imidazol-6-yl)imidazo[1,2-a]pyrazine] the CC50 ([1]; Homo sapiens, read-out: LC50 (the source's name)) was over 1000 nM, the TGI [1] was 5220 nM and the GI50 ([2]; Homo sapiens) was 2080 nM. It also gave a TGI [2] of 3970 nM, a GI50 ([3]; Homo sapiens) of 2010 nM and a TGI [3] of 3830 nM. For the same molecule, the TGI ([4]; HCC-2998, five dose 0.01–100 µM) was 3460 nM, the GI50 ([4]; Homo sapiens, HCC 2998) was 1810 nM and the GI50 ([5]; Homo sapiens) was 1680 nM. The TGI ([5]; five dose 0.01–100 µM) was 3220 nM, the GI50 ([6]; Homo sapiens) was 1770 nM and the TGI ([6]; five dose 0.01–100 µM) was 3650 nM. For the same molecule, the GI50 ([7]; Homo sapiens) was 1700 nM, the TGI [7] was 3360 nM and the GI50 [8] was 2040 nM. It also gave a GI50 ([9]; Homo sapiens) of 2270 nM, a CC50 [9, 24] of 7420 nM and a TGI ([9]; five dose 0.01–100 µM) of 4100 nM. For the same molecule, the GI50 ([10]; Homo sapiens) was 2550 nM, the CC50 [10, 24] was over 1000 nM and the TGI ([10]; five dose 0.01–100 µM) was 9490 nM. The GI50 ([11]; Homo sapiens, OVCAR-4) was 2170 nM, the inhibition at 10 µM ([11]; Homo sapiens, OVCAR-4, read-out: Percent growth inhibition) was 97.2% and the CC50 ([11]; Homo sapiens, OVCAR-4, five dose 0.01–100 µM, read-out: LC50 (the source's name)) was over 1000 nM. The TGI ([11]; OVCAR-4, five dose 0.01–100 µM) was 6300 nM, the GI50 [12] was 2430 nM and the CC50 ([12]; five dose 0.01–100 µM, read-out: LC50 (the source's name)) was over 1000 nM. For the same molecule, the GI50 ([13]; Homo sapiens) was 2340 nM, the CC50 [13, 24] was over 1000 nM and the inhibition at 10 µM ([13]; Homo sapiens, read-out: Percent growth inhibition) was 98.9%. It also gave a TGI ([13]; five dose 0.01–100 µM) of 7330 nM, a GI50 ([14]; Homo sapiens) of 1910 nM and an inhibition at 10 µM ([14]; Homo sapiens, single dose 10 µM, negative = lethal, read-out: Percent growth inhibition) of 98.8%. For the same molecule, the TGI ([14]; five dose 0.01–100 µM) was 4140 nM, the GI50 ([15]; Homo sapiens) was 1740 nM and the TGI ([15]; NCI-522, five dose 0.01–100 µM) was 3400 nM. It also gave a GI50 ([16]; Homo sapiens) of 1690 nM, a TGI ([16]; five dose 0.01–100 µM) of 3790 nM and a GI50 ([17]; Homo sapiens) of 2010 nM. It also gave a TGI [17] of 4090 nM, a GI50 ([18]; Homo sapiens, MDA-MB-231) of 1290 nM and a CC50 ([18]; Homo sapiens, MDA-MB-231/ATCC, five dose 0.01–100 µM, read-out: LC50 (the source's name)) of 7330 nM. For the same molecule, the TGI ([18]; MDA-MB-231/ATCC, five dose 0.01–100 µM) was 3080 nM, the TGI ([19]; HS 578 T, five dose 0.01–100 µM) was 6740 nM and the GI50 ([19]; Homo sapiens, Hs-578T) was 2390 nM. For the same molecule, the inhibition at 10 µM ([19]; Homo sapiens, Hs-578T, read-out: Percent growth inhibition) was 96.6%, the CC50 ([19]; Homo sapiens, HS 578 T, five dose 0.01–100 µM, read-out: LC50 (the source's name)) was over 1000 nM and the GI50 ([20]; Homo sapiens) was 1940 nM. The CC50 [20, 24] was 6820 nM, the TGI ([20]; five dose 0.01–100 µM) was 3640 nM and the GI50 ([21]; Homo sapiens, T47D) was 1900 nM. It also gave a CC50 ([21]; Homo sapiens, T47D, T-47D, five dose 0.01–100 µM, read-out: LC50 (the source's name)) of over 1000 nM, a TGI ([21]; T-47D, five dose 0.01–100 µM) of 4690 nM and a GI50 [22] of 2320 nM. The CC50 ([22]; read-out: LC50 (the source's name)) was over 1000 nM, the GI50 ([23]; Homo sapiens) was 1800 nM and the CC50 [23, 24] was over 1000 nM. The TGI ([23]; five dose 0.01–100 µM) was 4580 nM.
